Test results taken from the OPERA property sets (Mansouri et al. 2018).

Conditions: for log10 BCF / log10 biotransformation half-life (days): fish

Compound | boiling point | melting point | also measured
O=[N+]([O-])c1ccc(Cl)c(Cl)c1 | 256 °C | 43 °C | log10 Henry constant (atm·m³/mol): -5.09; log10 Koc (L/kg): 2.53; log10 vapour pressure (mmHg): -1.99; ready biodegradability: not readily biodegradable; log10 BCF: 1.71; log10 biotransformation half-life (days): -0.27
Cc1c(F)c(F)c(F)c(F)c1F | 118 °C | -29.8 °C | –
Clc1cc(Cl)c(-c2c(Cl)cc(Cl)cc2Cl)c(Cl)c1 | – | – | log10 Koa: 8.99; log10 Koc (L/kg): 6.08; log10 vapour pressure (mmHg): -4.92
OC1CCCCCC1 | 185 °C | 2 °C | –
CCC(C)c1ccc(OCC2CO2)cc1 (configuration not stated) | – | – | ready biodegradability: not readily biodegradable
Cc1ccccc1NCc1ccccc1 | 302 °C | 60 °C | –
C=CC(CC)c1ccccc1 (configuration not stated) | 192 °C | – | –
c1ccc(NC2CCCCC2)cc1 | 279 °C | 16 °C | –
N#Cc1ccc(N)cc1Cl | – | 118 °C | –
COc1cc([C@@H]2c3cc4c(c(O)c3C[C@H]3COC(=O)[C@@H]32)OCO4)cc(OC)c1OC | – | 234 °C | –
CC1=CCC(C)C1 (configuration not stated) | 93.2 °C | – | –
CCCCCCCCCO | – | – | ready biodegradability: readily biodegradable
CCC(C)Nc1c([N+](=O)[O-])cc(C(C)(C)C)cc1[N+](=O)[O-] (configuration not stated) | – | 60 °C | log10 Koc (L/kg): 3.98; log10 vapour pressure (mmHg): -4.9
NC(=O)Oc1ccccc1 | – | 150 °C | –
Oc1c(Cl)cccc1Cl | 220 °C | 68.5 °C | log10 vapour pressure (mmHg): -1.48; ready biodegradability: not readily biodegradable; log10 BCF: 1.08
C[C@@H]1C(=O)OC[C@H]2[C@@H]1CC[C@@H]2C | – | 60.5 °C | –
Cc1cccc2cccc(C)c12 | 270 °C | 65 °C | log10 vapour pressure (mmHg): -2.32
FC(F)(F)COCC(F)(F)F | 63.9 °C | – | log10 vapour pressure (mmHg): 2.19
CCCCCCCCC(C)CCC (configuration not stated) | – | – | log10 biotransformation half-life (days): 0.98
O=c1occc2ccccc12 | 286 °C | 47 °C | –
Nc1ccccn1 | 211 °C | 57.5 °C | ready biodegradability: not readily biodegradable; log10 BCF: 1.06
CCOC(=O)c1ccc([N+](=O)[O-])cc1 | 186 °C | 57 °C | log10 Koc (L/kg): 2.48
O=CCCCC=O | – | – | log10 vapour pressure (mmHg): -0.222
CC(Cl)CCCCl (configuration not stated) | 162 °C | – | –

Compound | boiling point | melting point | also measured
CCCCCCCCCCCCCCCC[N+](C)(C)C | – | – | ready biodegradability: not readily biodegradable
CCc1cc2ccccc2c2ccccc12 | – | 62.5 °C | log10 biotransformation half-life (days): 0.29
ClCc1cc(Cl)cc(Cl)c1 | – | 36 °C | –
Clc1ccc(-c2c(Cl)ccc(Cl)c2Cl)cc1Cl | – | – | log10 Koa: 9.06; log10 biotransformation half-life (days): 2.63
CC(=O)NC(C)=O | 224 °C | 79 °C | log10 vapour pressure (mmHg): -2
Cc1cc(C)c(C(=O)O)cc1C | – | 152 °C | –
Cc1c(N(C)C)c(=O)n(-c2ccccc2)n1C | – | 134 °C | –
CC1CCC(C(C)C)C(O)C1 (configuration not stated) | – | 39 °C | log10 vapour pressure (mmHg): -1.08; ready biodegradability: not readily biodegradable; log10 BCF: 1.03; log10 biotransformation half-life (days): -1.19
Cc1cc(O)c(C(C)(C)C)cc1C(C)(C)C | 282 °C | 62.1 °C | –
FC(F)(F)C(Cl)C(F)(F)F | 14.1 °C | -120 °C | –
O=[N+]([O-])c1ccccc1O | 216 °C | 44.8 °C | log10 Henry constant (atm·m³/mol): -4.89; log10 vapour pressure (mmHg): -0.947; ready biodegradability: not readily biodegradable; log10 BCF: 1.34
CN1CCN(C2=Nc3ccccc3Cc3ccccc32)CC1 | – | 137 °C | –
Cc1ccc(N=C=Nc2ccc(C)cc2)cc1 | – | 58.5 °C | –
CCNC(N)=S | – | 112 °C | –
COc1cc(OC)nc(NC(=O)NS(=O)(=O)c2c(-c3nnn(C)n3)cnn2C)n1 | – | 170 °C | log10 Koc (L/kg): 1.89; log10 vapour pressure (mmHg): -10.5
N#CC(F)(F)F | -68.8 °C | – | –
CC(=O)CCC(=O)O | 246 °C | 33 °C | log10 vapour pressure (mmHg): -2.95
CC1CCOC1 (configuration not stated) | 86.5 °C | – | –
CC(=O)N1CCC(=O)CC1 | 218 °C | – | –
CCCCCCCCCCCCCCCC | 287 °C | 18.1 °C | log10 biodegradation half-life (days): 1.23; log10 vapour pressure (mmHg): -2.84; ready biodegradability: not readily biodegradable; log10 BCF: 3.7
Cc1cc2ccccc2c2ccccc12 | – | – | log10 biotransformation half-life (days): 0.12
CC(C)=C1OC(=O)N(c2cc(OC3CCCC3)c(Cl)cc2F)C1=O | – | 104 °C | –
CCCCCC(C)C | 118 °C | -109 °C | log10 biodegradation half-life (days): 0.477; log10 vapour pressure (mmHg): 1.32
